Experimental data: patent US20230079107A1, “COMPOSITIONS AND METHODS FOR THE TREATMENT OF HUMAN IMMUNODEFICIENCY VIRUS” (Cidara Therapeutics, Inc., priority 2019, published 2023)
Read-outs that look alike come from different tables or passages of the source.

Columns and labels:
Format in all cases: cell-based
in vitro = assay: in vitro; parameters: TC50: unit not given beside the values; conditions: human
Method: (§1) In these studies, cytotoxicity was also evaluated (TC50). Test materials were derived by measuring the reduction of the tetrazolium dye XTT (2,3-bis(2-methoxy-4-nitro-5-sulfophenyl)-5-[(phenylamino)carbonyl]-2H-tetrazolium hydroxide). XTT in metabolically active cells is metabolized by the mitochondrial enzyme NADPH oxidase to a soluble formazan product. XTT solution was prepared daily as a stock of 1 mg/mL in RPMI-1640 without additives. Phenazine methosulfate (PMS) solution was prepared at 0.15 mg/mL in DPBS and stored in the dark at −20° C. XTT/PMS stock was prepared immediately before use by adding 40 μL of PMS per mL of XTT solution. 50 μL of XTT/PMS was added to each well of the plate and the plate incubated for 4 hours at 37° C. The 4 hour incubation has been empirically determined to be within the linear response range for XTT dye reduction with the indicated numbers of cells for each assay. The plates were sealed and inverted several times to mix the soluble formazan product and the plate was read at 450 nm (650 nm reference wavelength) with a Molecular Devices SpectraMax Plus 384 96 well plate format spectrophotometer.
as §1, with “Fifty L (50 μL)” for “50 μL”
as §1, with “studies” for “studies,”, “Fifty L (50 μL)” for “50 μL”
(§2) In these studies, cytotoxicity was also evaluated (TC50). Test materials were derived by measuring the reduction of the tetrazolium dye XTT (2,3-bis(2-methoxy-4-nitro-5-sulfophenyl)-5-[(phenylamino)carbonyl]-2H-tetrazolium hydroxide). XTT in metabolically active cells is metabolized by the mitochondrial enzyme NADPH oxidase to a soluble formazan product. XTT solution was prepared daily as a stock of 1 mg/mL in RPMI-1640 without additives.

[1] = molecular target: cell-cell fusion of HeLa-CD4-LTR-β-Gal and HL2/3 cells mediated by gp120 and CD4 interaction (UniProt P04578)
[2] = system: HeLa-CD4-LTR-β-Gal and HL2/3 cells (cell viability); assay: in vitro; parameters: TC50: unit not given beside the values; conditions: Example 36, Table 9, XTT
Method: as §1
as §1, with “Fifty L (50 μL)” for “50 μL”
as §1, with “studies” for “studies,”, “Fifty L (50 μL)” for “50 μL”
as §2

[3] = Example 11, Table 5, XTT, read-out: TC50 (the source's name)
[4] = Example 19, Table 6, Run 1, XTT, read-out: TC50 [μM] Run 1
[5] = Example 19, Table 6, Run 2, XTT, read-out: TC50 [μM] Run 2
[6] = Example 19, Table 6, Run 3, XTT, read-out: TC50 [μM] Run 3
[7] = Example 33, Table 7, XTT, read-out: TC50 (nM) (Tox)

Compound	CC50 (in vitro; [3])	CC50 (in vitro; [4])	CC50 (in vitro; [6])	CC50 (in vitro; [7])	further results
COc1cc(-c2ccc(/N=N/c3ccc4c(S(=O)(=O)O)cc(S(=O)(=O)O)c(N)c4c3O)c(OC)c2)ccc1/N=N/c1ccc2c(S(=O)(=O)O)cc(S(=O)(=O)O)c(N)c2c1O [CSB, Chicago Sky Blue, reference compound]	> 10 µM	> 10 µM	> 10 µM	> 10 µM	CC50 (in vitro; [5]): > 10 µM
C#CCOCCOCCOCCOCCNC(=O)c1nc(-c2ncc(OC)c3c(C(=O)C(=O)N4CCC(=C(C#N)c5ccccc5)CC4)c[nH]c23)cs1 [Int-1]	> 10 µM	> 10 µM			
C#CCOCCOCCOCCOCCNC(=O)c1ncn(-c2ncc(OC)c3c(C(=O)C(=O)N4CCC(=C(C#N)c5ccccc5)CC4)c[nH]c23)n1 [Int-2]			> 10 µM		CC50 (in vitro; [5]): > 10 µM; fusion inhibition activity, in words [1]: highly active
C#CCOCCOCCNC(=N)NCCNC(=O)c1csc(-c2ncc(OC)c3c(C(=O)C(=O)N4CCC(=C(C#N)c5ccccc5)CC4)c[nH]c23)n1 [Int-3]	> 10 µM	> 10 µM			
C#CCOCCOCCOCCOCC(O)CNC(=O)c1nc(-c2ncc(OC)c3c(C(=O)C(=O)N4CCC(=C(C#N)c5ccccc5)CC4)c[nH]c23)cs1 (stereo not shown) [Int-4]					CC50 (in vitro; [5]): > 10 µM; fusion inhibition activity, in words [1]: highly active
C#CCOCCOCCOCCOCCNC(=O)COCc1ncn(-c2ncc(OC)c3c(C(=O)C(=O)N4CCN(C(=O)c5ccccc5)CC4)c[nH]c23)n1 [Int-5]	> 0.5 µM	> 0.5 µM			
COc1cnc(-n2cnc(COCC(=O)NCCOCCOCCOCCOCCOCCON)n2)c2[nH]cc(C(=O)C(=O)N3CCN(C(=O)c4ccccc4)CC3)c12 [Int-6]	> 0.5 µM	> 0.5 µM			
C#CCOCCOCCOCCOCCC(=O)NCc1ncn(-c2ncc(OC)c3c(C(=O)C(=O)N4CCN(C(=O)c5ccccc5)CC4)c[nH]c23)n1 [Int-7]	> 0.5 µM	> 0.5 µM			
C#CCOCCOCCOCCOCCOc1cnc(-n2cnc(C)n2)c2[nH]cc(C(=O)C(=O)N3CCN(C(=O)c4ccccc4)CC3)c12 [Int-8]	> 10 µM	> 10 µM			
C#CCOCCOCCOCCOCCNC(=O)c1csc(-c2ncc(OC)c3c(C(=O)C(=O)N4CCN(C(=O)c5ccccc5)CC4)c[nH]c23)n1 [Int-9]	> 10 µM	> 10 µM			
C#CCOCCOCCNC(=N)NCCNC(=O)c1csc(-c2ncc(OC)c3c(C(=O)C(=O)N4CCN(C(=O)c5ccccc5)CC4)c[nH]c23)n1 [Int-10]	> 10 µM	> 10 µM			
C#CCOCCOCCOCCC1CCN(CCNC(=O)c2ncn(-c3ncc(OC)c4c(C(=O)C(=O)N5CCC(=C(C#N)c6ccccc6)CC5)c[nH]c34)n2)CC1 [Int-11]		> 10 µM			
C#CCOCCOCCOCCOCCC(=O)N(CCCNC(=O)CCOCCNC(=O)c1ncn(-c2ncc(OC)c3c(C(=O)C(=O)N4CCC(=C(C#N)c5ccccc5)CC4)c[nH]c23)n1)C(CO)(CO)CO [Int-12]			> 10 µM		
C#CCOCCOCCOCCOCCNC(=O)c1cn(-c2ncc(OC)c3c(C(=O)C(=O)N4CCC(=C(C#N)c5ccccc5)CC4)c[nH]c23)nn1 [Int-13]			> 10 µM		
C#CCOCCOCCOCCOCCC(=O)N[C@@H](CS(=O)(=O)O)C(=O)N1CCN(CCNC(=O)c2ncn(-c3ncc(OC)c4c(C(=O)C(=O)N5CCC(=C(C#N)c6ccccc6)CC5)c[nH]c34)n2)CC1 [Int-14]			> 10 µM		
C#CCOCCOCCOCCOCCC(=O)N(CCCNC(=O)c1ncn(-c2ncc(OC)c3c(C(=O)C(=O)N4CCC(=C(C#N)c5ccccc5)CC4)c[nH]c23)n1)CCS(=O)(=O)O [Int-15]			> 10 µM		
C#CCOCCOCCOCCOCCN1CCN(CCNC(=O)c2ncn(-c3ncc(OC)c4c(C(=O)C(=O)N5CCC(=C(C#N)c6ccccc6)CC5)c[nH]c34)n2)CC1 [Int-16]			> 10 µM		
C#CCOCCOCCOCCOCCC(=O)N(CCCNC(=O)c1ncn(-c2ncc(OC)c3c(C(=O)C(=O)N4CCC(=C(C#N)c5ccccc5)CC4)c[nH]c23)n1)C(CO)(CO)CO [Int-17]			> 10 µM	> 0.5 µM	
C#CCOCCOCCOCCOCCN1CCN(CCCNC(=O)c2ncn(-c3ncc(OC)c4c(C(=O)C(=O)N5CCC(=C(C#N)c6ccccc6)CC5)c[nH]c34)n2)CC1 [Int-18]				> 0.5 µM	TC50 [2]: >2000
C#CCOCCOCCOCCOCCN1CCN(CCCN2CCN(CCNC(=O)c3ncn(-c4ncc(OC)c5c(C(=O)C(=O)N6CCC(=C(C#N)c7ccccc7)CC6)c[nH]c45)n3)CC2)CC1 [Int-19]				> 0.5 µM	
C#CCOCCOCCOCCOCCNC(=O)c1ncn(-c2ncc(OC)c3c(C(=O)C(=O)N4CCN(C(=O)c5ccccc5)CC4)c[nH]c23)n1 [Int-20]				> 0.5 µM	
C#CCOCCOCCOCCOCCN1CCN(CCCN2CCN(CCCNC(=O)c3ncn(-c4ncc(OC)c5c(C(=O)C(=O)N6CCC(=C(C#N)c7ccccc7)CC6)c[nH]c45)n3)CC2)CC1 [Int-22]				> 0.5 µM	TC50 [2]: >2000
C#CCOCCOCCOCCOCCC(=O)N(CC(=O)NCCOCCOCCOCCOCCOCCOCCOCCOCCOCCOCCOCCOC)CC(=O)NCCn1cc(COCCOCCOCCOCCNC(=O)c2ncn(-c3ncc(OC)c4c(C(=O)C(=O)N5CCC(=C(C#N)c6ccccc6)CC5)c[nH]c34)n2)nn1 [Int-25]				> 0.5 µM	TC50 [2]: >2000
C#CCOCCOCCOCCOCCN(CCCO)CCCN(CCCO)CCCNC(=O)c1ncn(-c2ncc(OC)c3c(C(=O)C(=O)N4CCC(=C(C#N)c5ccccc5)CC4)c[nH]c23)n1 [Int-26]					TC50 [2]: >2000
C#CCOCCOCCOCCOCCN1CCN(CCCNC(=O)c2ncn(-c3ncc(OC)c4c(C(=O)C(=O)N5CCC(=C(C#N)c6ccccn6)CC5)c[nH]c34)n2)CC1 [Int-27]					TC50 [2]: >2000
enfuvirtide				> 1 µM	TC50 [2]: >1,000
